From EP4001293A1, “TETRAPEPTIDE AND ITS USE” (Justus-Liebig-Universität Gießen, priority 2020, dated 2022)
Peptide text beside a SMILES is read from it.

What was measured:
Format in all cases: cell-based
[1] = tested on: Zonula Occludens-1 (ZO-1); assay: Stimulation of ZO-1 expression, fluorescence measurement; details: Sertoli-Zellen; Fig. 4B-4D
Excerpt: Experimentell erfolgt die Quantifizierung der Stimulation der Bildung von ZO-1 in 93RS2 Sertoli-Zellen durch quantitative Auswertung der Messung der Expression von ZO-1. Der quantitative Messwert zur Beschreibung der Stimulation der Expression von ZO-1 ist die Häufigkeit (Frequenz), mit der mindestens ein bestimmter Wert ("Wert") der Fluoreszenzintensität gemessen wird. Die Bedeutung der Begriffe "Häufigkeit"/"Frequenz" und "Wert"/"Wert der Fluoreszenzintensität" ist dabei analog der Bedeutung im Zusammenhang mit der Alkalischen Phosphatase und bezieht sich hierbei auf Fig. 4F bzw. Fig. 4G bzw. Fig. 4H bzw. Fig. 4I. Die Häufigkeit des mindestens einen bestimmten Wertes der in den mit dem erfindungsgemäßen Tetrapeptid behandelten Zellen gemessenen Werte im direkten Vergleich mit der Häufigkeit des mindestens einen gleichen Wertes, die in Tetrapeptid-freien aber ansonsten gleich behandelten Kontrollzellen gemessen wird, beträgt ab dem Wert 70 mindestens 120 % der in den gleich behandelten Kontrollzellen gemessenen Häufigkeit ab dem Wert 70.
Die Durchführung des Färbevorganges erfolgt bei allen Proben (Referenz, Vergleichsprobe mit Testosteron und Tetrapeptid) in gleicher Weise, so dass die Farbstärke (erkennbar in der photographischen Darstellung in Fig. 1A und Fig. 1B anhand der Grauwerte in der jeweiligen Abbildung) als Maß für die Stimulierung dient (je dunkler der Grauwert, umso stärker die Stimulation zur Ossifikation). […] Dem Fachmann sind diese Zusammenhänge bekannt, ebenso weiß er wie Untersuchungen der Expression von Enzymen, und somit auch der ALP, quantitativ durchgeführt werden, so dass darauf hier nur allgemein eingegangen werden muss. […] Im Rahmen der vorliegenden Ausführungsbeispiele (Beispielmessungen) wurden alle dem Fachmann bekannten Parameter, beispielsweise Lösungsmittel- und Pufferzusammensetzungen sowie -Konzentrationen, Temperaturen, Geräteeinstellungen (z. B. für die Messung der Fluoreszenzstärke) usw. in geeigneten Grenzen konstant gehalten, so dass die Versuchsergebnisse die beschriebenen quantitativ-vergleichbaren relativen Ergebnisse liefern. […]

SAOS-2-Zellen [2] = assay: Stimulation of ossification, Alizarin red staining
Excerpt: Die Ausführungsbeispiele zeigen, dass die Tetrapeptide Seq ID 1-6 wenigstens die gleiche Wirksamkeit aufweisen wie Testosteron und die Testosteronanaloga. Dabei weisen sie als Tetrapeptide jedoch nicht die hormonbedingten Nebenwirkungen auf, da sie nur am membrangebundenen Androgenrezeptor ZIP-9 binden und nicht im Zellkern am klassischen Androgenrezeptor (AR). Eine besonders positive Wirkung kommt dem erfindungsgemäßen Tetrapeptid 1 Seq ID 1 zu. Die Wirksamkeit der erfindungsgemäßen Tetrapeptide Seq ID 1-6 zur Behandlung der Osteoporose, myodegenerativen Erkrankungen (zum Beispiel Muskeldystrophie, insbesondere jedoch Muskelatrophie) sowie der männlichen Infertilität wird experimentell in Zellkultur in einem charakteristischen Zellmodell gezeigt. Zur Verabreichung an Menschen und Tiere wird mindestens ein erfindungsgemäße Tetrapeptid als medizinisches Mittel in einer pharmazeutisch akzeptablen Komposition als Arzneimittel formuliert. Das medizinische Mittel wird zur Behandlung der Osteoporose, myodegenerativen Erkrankungen sowie der männlichen Infertilität bei Menschen und Tieren eingesetzt. Es löst dabei keine übermäßige Toxizität, Irritationen oder allergische Reaktionen aus. Bevorzugt wird das medizinische Mittel umfassend mindestens ein erfindungsgemäßes Tetrapeptid Menschen oder Tieren in Form entweder oral, intramuskulär, intraossär, rektal, parenteral, intravenös, subkutan, intracisternal, intravaginal, intraperitoneal, intrathekal, intravasculär, lokal (Puder, Salbe oder Tropfen), in Sprayform oder als Pflaster verabreicht. Dosierungsformen für die örtliche Administration des medizinischen Mittels dieser Erfindung schließen Salben, Puder, Sprays oder Inhalationsmittel ein. Das mindestens eine erfindungsgemäße Tetrapeptid als medizinisches Mittel wird unter sterilen Bedingungen mit einem physiologisch akzeptablen Trägerstoff und möglichen Konservierungsmitteln, Puffern oder Treibmitteln, je nach Bedarf, vermischt. Ein Konservierungsmittel ist eine Chemikalie, die zugesetzt wird, um die Zersetzung zu verhindern. Es hilft, das medizinische Mittel gegen Bakterien- und Pilzbefall oder Abbau durch Enzyme zu schützen, indem es das Wachstum von Bakterien oder Pilzen verhindern und/oder die Zersetzung des Mittels verlangsamt. Bevorzugt wird das medizinische Mittel dieser Erfindung als Lyophilisat hergestellt. Bevorzugt wird das medizinische Mittel dieser Erfindung oral verabreicht. Da das darin enthaltene mindestens eine Tetrapeptid sehr klein ist, wird es von proteolytischen Enzymen nicht so rasch abgebaut und kann seine Wirksamkeit am ZIP-9 Rezeptor sehr selektiv und sehr spezifisch entfalten. Die Tetrapeptide Seq ID 1-6 werden gemäß Verfahren, die der Fachmann kennt, einfach und mit geringen Kosten hergestellt. Sie weisen in lyophilisierter Form eine lange Lagerungsbeständigkeit und hohe Aktivität auf. Die Lagerung ist bei Raumtemperatur möglich. Ein Vorteil ist, dass aufgrund der hohen Spezifität nur geringe Mengen verabreicht werden müssen, um an den ZIP-9 Rezeptor zu binden und dort die positiven Effekte auszulösen. In einem besonderen Ausführungsbeispiel wird das Tetrapeptid Seq ID 1 verkapselt, damit es im Magen-Darm-Trakt nicht abgebaut (säure-hydrolysiert), sondern als Tetrapeptid in den Blutkreislauf aufgenommen wird. Dazu werden z.B. mesoporöse Silicapartikel verwendet, die die Bioverfügbarkeit verlängern. Alternativ werden an das Tetrapeptid Polymere angehängt, wie z.B. Polyethlenglycolgruppen (PEGylierung). […]

[3] = tested on: Alkalischen Phosphatase (ALP); assay: Expression of alkaline phosphatase, immunofluorescence; details: SAOS-2 Osteoblasten; for Expression der Alkalischen Phosphatase (grüne Fluoreszenz): Fig. 2A, 2B
Excerpt: Die Ausführungsbeispiele zeigen, dass die Tetrapeptide Seq ID 1-6 wenigstens die gleiche Wirksamkeit aufweisen wie Testosteron und die Testosteronanaloga. Dabei weisen sie als Tetrapeptide jedoch nicht die hormonbedingten Nebenwirkungen auf, da sie nur am membrangebundenen Androgenrezeptor ZIP-9 binden und nicht im Zellkern am klassischen Androgenrezeptor (AR). Eine besonders positive Wirkung kommt dem erfindungsgemäßen Tetrapeptid 1 Seq ID 1 zu. Die Wirksamkeit der erfindungsgemäßen Tetrapeptide Seq ID 1-6 zur Behandlung der Osteoporose, myodegenerativen Erkrankungen (zum Beispiel Muskeldystrophie, insbesondere jedoch Muskelatrophie) sowie der männlichen Infertilität wird experimentell in Zellkultur in einem charakteristischen Zellmodell gezeigt. Zur Verabreichung an Menschen und Tiere wird mindestens ein erfindungsgemäße Tetrapeptid als medizinisches Mittel in einer pharmazeutisch akzeptablen Komposition als Arzneimittel formuliert. Das medizinische Mittel wird zur Behandlung der Osteoporose, myodegenerativen Erkrankungen sowie der männlichen Infertilität bei Menschen und Tieren eingesetzt. Es löst dabei keine übermäßige Toxizität, Irritationen oder allergische Reaktionen aus. Bevorzugt wird das medizinische Mittel umfassend mindestens ein erfindungsgemäßes Tetrapeptid Menschen oder Tieren in Form entweder oral, intramuskulär, intraossär, rektal, parenteral, intravenös, subkutan, intracisternal, intravaginal, intraperitoneal, intrathekal, intravasculär, lokal (Puder, Salbe oder Tropfen), in Sprayform oder als Pflaster verabreicht. Dosierungsformen für die örtliche Administration des medizinischen Mittels dieser Erfindung schließen Salben, Puder, Sprays oder Inhalationsmittel ein. Das mindestens eine erfindungsgemäße Tetrapeptid als medizinisches Mittel wird unter sterilen Bedingungen mit einem physiologisch akzeptablen Trägerstoff und möglichen Konservierungsmitteln, Puffern oder Treibmitteln, je nach Bedarf, vermischt. Ein Konservierungsmittel ist eine Chemikalie, die zugesetzt wird, um die Zersetzung zu verhindern. […]

L6-Myoblasten [4] = assay: Formation of myotubes (muscle fibres) from myoblasts; details: 9 Stunden Inkubation, Fig. 3B
Excerpt: (§1) Die Ausführungsbeispiele zeigen, dass die Tetrapeptide Seq ID 1-6 wenigstens die gleiche Wirksamkeit aufweisen wie Testosteron und die Testosteronanaloga. Dabei weisen sie als Tetrapeptide jedoch nicht die hormonbedingten Nebenwirkungen auf, da sie nur am membrangebundenen Androgenrezeptor ZIP-9 binden und nicht im Zellkern am klassischen Androgenrezeptor (AR). Eine besonders positive Wirkung kommt dem erfindungsgemäßen Tetrapeptid 1 Seq ID 1 zu. Die Wirksamkeit der erfindungsgemäßen Tetrapeptide Seq ID 1-6 zur Behandlung der Osteoporose, myodegenerativen Erkrankungen (zum Beispiel Muskeldystrophie, insbesondere jedoch Muskelatrophie) sowie der männlichen Infertilität wird experimentell in Zellkultur in einem charakteristischen Zellmodell gezeigt. Zur Verabreichung an Menschen und Tiere wird mindestens ein erfindungsgemäße Tetrapeptid als medizinisches Mittel in einer pharmazeutisch akzeptablen Komposition als Arzneimittel formuliert. Das medizinische Mittel wird zur Behandlung der Osteoporose, myodegenerativen Erkrankungen sowie der männlichen Infertilität bei Menschen und Tieren eingesetzt. Es löst dabei keine übermäßige Toxizität, Irritationen oder allergische Reaktionen aus. […]

Claudin-5 = assay: Stimulation of Claudin-5 formation, fluorescence measurement; details: 93RS2 Sertoli-Zellen; relative to control sample without tetrapeptide
Excerpt: (§2) Die besondere Wirksamkeit von Tetrapeptid Seq ID 1 umfasst weiterhin die Stimulierung der Bildung von Claudin-1 und Claudin-5 in Zellen. Claudine sind kleine Transmembranproteine, die in vielen Organismen, Menschen und Tieren vorkommen und in ihrem Aufbau sehr ähnlich sind. Sie haben entscheidende Funktionen zur Bildung einer funktionierenden Barriere in verschiedenen Epithelien. Es gibt zahlreiche […] von Claudinen, die weitgehend ubiquitär exprimiert sind und Grundfunktionen für die Bildung der Tight-Junction-Bänder übernehmen. Caudin-1 und Claudin-5 sind spezialisierte Claudine, die an der Blut-Hoden-Schranke der männlichen Gonaden exprimiert werden. Ihre Beteiligung an der Ausbildung und Aufrechterhaltung der Tight Junctions an der Blut-Hoden-Schranke schützt die männlichen Keimzellen vor Angriffen des eigenen Immunsystems. Somit gehen Defekte der Blut-Hoden-Schranke immer mit Infertilität einher. […] Experimentell erfolgt die Quantifizierung der Stimulation der Bildung von Claudin-1 und/oder Claudin-5 in der Zelle durch Fluoreszenzmessung. Der quantitative Messwert zur Beschreibung der Stimulation der Bildung von Claudin-1 und/oder Claudin-5 in 93RS2 Sertoli-Zellen ist die Fluoreszenzintensität der mit dem Tetrapeptid behandelten Zellen bei mikroskopischer Betrachtung im direkten Vergleich mit einer gleichbehandelten Kontrollprobe ohne Tetrapeptid.

Myogenin = assay: Stimulation of myogenin formation, fluorescence measurement; details: L6-Myoblasten; relative to control sample without tetrapeptide
Excerpt: as §1

[5] = tested on: Fokalen Adhäsionskinase (FAK); assay: Stimulation/activation of focal adhesion kinase, fluorescence measurement; details: L6-Myoblasten
Excerpt: as §1

Claudin-1 = assay: Stimulation of Claudin-1 formation, fluorescence measurement; details: 93RS2 Sertoli-Zellen; relative to control sample without tetrapeptide
Excerpt: as §2

[6] = tested on: Alkalischen Phosphatase (ALP); assay: Expression of alkaline phosphatase, immunofluorescence; details: SAOS-2 Osteoblasten; Fig. 2A, 2B
Excerpt: (§3) Zur Verabreichung an Menschen und Tiere wird mindestens ein erfindungsgemäße Tetrapeptid als medizinisches Mittel in einer pharmazeutisch akzeptablen Komposition als Arzneimittel formuliert. […] Bevorzugt wird das medizinische Mittel umfassend mindestens ein erfindungsgemäßes Tetrapeptid Menschen oder Tieren in Form entweder oral, intramuskulär, intraossär, rektal, parenteral, intravenös, subkutan, intracisternal, intravaginal, intraperitoneal, intrathekal, intravasculär, lokal (Puder, Salbe oder Tropfen), in Sprayform oder als Pflaster verabreicht. Dosierungsformen für die örtliche Administration des medizinischen Mittels dieser Erfindung schließen Salben, Puder, Sprays oder Inhalationsmittel ein. Das mindestens eine erfindungsgemäße Tetrapeptid als medizinisches Mittel wird unter sterilen Bedingungen mit einem physiologisch akzeptablen Trägerstoff und möglichen Konservierungsmitteln, Puffern oder Treibmitteln, je nach Bedarf, vermischt. Ein Konservierungsmittel ist eine Chemikalie, die zugesetzt wird, um die Zersetzung zu verhindern. […] Bevorzugt wird das medizinische Mittel dieser Erfindung als Lyophilisat hergestellt. Bevorzugt wird das medizinische Mittel dieser Erfindung oral verabreicht.

L6-Myoblasten [7] = assay: Formation of myotubes (muscle fibres) from myoblasts; details: 9 Stunden Inkubation, Fig. 3B; remark: listed apart in the source
Excerpt: as §3

SAOS-2-Zellen [8] = assay: Stimulation of ossification, Alizarin red staining; remark: listed apart in the source
Excerpt: as §3

[9] = tested on: Fokalen Adhäsionskinase (FAK); assay: Stimulation/activation of focal adhesion kinase, fluorescence measurement; details: L6-Myoblasten; 6 Stunden Inkubation; versus reference sample; Fig. 3A
Excerpt: as §3

**Q.** How did the “Expression von Zonula occludens-1 (ZO-1)” value [1] turn out when CC(C)[C@H](NC(=O)CN)C(=O)N[C@@H](CO)C(=O)NCC(=O)O [Peptid-2, GVSG] (H-GVSG-OH) was run?
**A.** Its value is “stimulierenden Wirkung”.

**Q.** What about the “Stimulierung der Ossifikation” value (SAOS-2-Zellen [2]; 4 Tagen Inkubation, Fig. 1A) of the same compound?
**A.** The value was “Stimulierung der Ossifikation”.

**Q.** What about the “Stimulierung der Ossifikation” value (SAOS-2-Zellen [2]; 11 Tagen Inkubation, Fig. 1B) of the same compound?
**A.** Its value is “Stimulierung der Ossifikation”.

**Q.** And the “Expression der Alkalischen Phosphatase (grüne Fluoreszenz)” value [3]?
**A.** The value was “Abnahme der grünen Fluoreszenz”.

**Q.** CC[C@H](C)[C@H](N)C(=O)N[C@@H](C)C(=O)N1CCC[C@H]1C(=O)NCC(=O)O [Peptid-1, IAPG] (H-IAPG-OH) was tested. Which “Bildung von Myotuben (Muskelfasern)” value (L6-Myoblasten [4]) did it give?
**A.** Its value is “Myotuben (= Muskelfasern) gebildet”.

**Q.** And the “Bildung von Myotuben (Muskelfasern)” value (L6-Myoblasten [4]; listed as Tetrapeptid Seq ID 1)?
**A.** Its value is “die Muselfaserbildung stimuliert”.

**Q.** What about the “Fluoreszenzintensität (Claudin-5)” value (Claudin-5) of the same compound?
**A.** Its value is “wenigstens den dreifachen Wert”.

**Q.** What about the “Fluoreszenzintensität (Myogenin)” value (Myogenin) of the same compound?
**A.** Its value is “wenigstens den dreifachen Wert”.

**Q.** What about the “Expression von Zonula occludens-1 (ZO-1)” value [1] of the same compound?
**A.** Its value is “stimulierenden Wirkung”.

**Q.** What about the “Stimulierung der Ossifikation” value (SAOS-2-Zellen [2]; 4 Tagen Inkubation, Fig. 1A) of the same compound?
**A.** Its value is “Stimulierung der Ossifikation”.

**Q.** And the “Stimulierung der Ossifikation” value (SAOS-2-Zellen [2]; 11 Tagen Inkubation, Fig. 1B)?
**A.** The value was “Stimulierung der Ossifikation”.

**Q.** And the “Farbstärke (Alizarinrot)” value (SAOS-2-Zellen [2]; relative to equally treated control sample without tetrapeptide)?
**A.** The value was “wenigstens den dreifachen Wert”.

**Q.** And the “grüne Fluoreszenz (FAK)” value ([5]; 6 Stunden Inkubation, versus reference sample, Fig. 3A)?
**A.** Its value is “stärkere grüne Fluoreszenz”.

**Q.** And the “Fluoreszenzintensität (FAK)” value ([5]; relative to control sample without tetrapeptide)?
**A.** The value was “wenigstens den dreifachen Wert”.

**Q.** And the “Fluoreszenzintensität (Claudin-1)” value (Claudin-1)?
**A.** The value was “wenigstens den dreifachen Wert”.

**Q.** And the “Expression der Alkalischen Phosphatase (grüne Fluoreszenz)” value [3]?
**A.** Its value is “Abnahme der grünen Fluoreszenz”.

**Q.** What about the “Häufigkeit (Frequenz) der Fluoreszenzintensität, Expression der ALP” value ([3]; ab dem Wert 65, % of frequency in tetrapeptide-free control cells) of the same compound?
**A.** Its value is at most 50%.

**Q.** Which results are given for C[C@]12CC[C@H]3[C@@H](CCC4=CC(=O)CC[C@@]43C)[C@@H]1CC[C@@H]2O [Testosteron]?
**A.** Expression der Alkalischen Phosphatase (grüne Fluoreszenz) [6]: Abnahme der grünen Fluoreszenz; Bildung von Myotuben (Muskelfasern) (L6-Myoblasten [7]): Myotuben (= Muskelfasern) gebildet; Stimulierung der Ossifikation (SAOS-2-Zellen [8]; 4 Tagen Inkubation, Fig. 1A): Stimulierung der Ossifikation; Stimulierung der Ossifikation (SAOS-2-Zellen [8]; 11 Tagen Inkubation, Fig. 1B): Stimulierung der Ossifikation; grüne Fluoreszenz (FAK) [9]: stärkere grüne Fluoreszenz

**Q.** Which “Expression von Zonula occludens-1 (ZO-1)” value [1] does the source give for GWG [Peptid-3] here?
**A.** The value was “stimulierenden Wirkung”.
